Measured values as given in patent publication US6552060B1, “Asymmetric disulfides and methods of using same” (Prolx Pharmaceuticals, Inc., priority 1997, dated 2003).
“And” between values parts separate entries of the source, which are not always exact repeats. Equal values may be shown once. “Also recorded” adds a separate entry of the source. Read-outs that look alike come from different tables or passages of the source. Marks after values point to notes of the source that are not given here.

Experiments:
TR/Trx = molecular target: T1, TR/Trx (Homo sapiens, UniProt Q16881); test: Thioredoxin dependent reduction of insulin by human thioredoxin reductase and NADPH (IC50 TR/Trx, 96 well); assay type: biochemical
T1 sequence (Q16881 1-499 isoform Q16881-5): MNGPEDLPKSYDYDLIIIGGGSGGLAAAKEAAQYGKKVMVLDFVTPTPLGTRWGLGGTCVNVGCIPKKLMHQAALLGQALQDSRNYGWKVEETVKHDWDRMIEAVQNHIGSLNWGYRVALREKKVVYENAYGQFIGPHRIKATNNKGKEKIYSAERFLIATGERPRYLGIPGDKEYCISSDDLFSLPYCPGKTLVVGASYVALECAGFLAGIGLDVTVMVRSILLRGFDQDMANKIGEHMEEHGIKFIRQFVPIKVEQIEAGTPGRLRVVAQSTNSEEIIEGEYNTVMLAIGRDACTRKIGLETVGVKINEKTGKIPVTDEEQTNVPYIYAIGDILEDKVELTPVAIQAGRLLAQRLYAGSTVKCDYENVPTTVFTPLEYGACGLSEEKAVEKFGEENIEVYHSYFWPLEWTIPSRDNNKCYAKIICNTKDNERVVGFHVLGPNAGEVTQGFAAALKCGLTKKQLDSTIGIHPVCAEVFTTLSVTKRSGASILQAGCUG
Description: When referring to the particular system being analyzed IC50 is typically followed by an abbreviation referring to that system (i.e., IC50 TR/Trx for the above described thioredoxin redox system which is comprised of thioredoxin reductase and thioredoxin).
A second plate was used for the assessment of biological activity or as a biological screen. Aliquots of disulfides dissolved in DMSO, were be transferred into 96 well plates. The assay to assess their ability to inhibit thioredoxin reductase measures the thioredoxin dependent reduction of insulin by human thioredoxin reductase and NADPH. The effects of the disulfides on the reduction of Trx by TR were measured spectrophotometrically by following the reduction of NADPH at 339 nm with insulin as the final electron acceptor in a buffered mixture of TR, Trx, NADPH and insulin.

in vitro = settings: mouse
[1] = system: EMT6 mouse mammary tumor cells; test: Cytotoxicity against EMT6 cells in culture (MTT); settings: read-out: Disulfide Cytotoxicity (IC50), Table 5, 48 h exposure
[2] = molecular target: T2, Human placental thioredoxin reductase (Homo sapiens, UniProt Q16881); test: NADPH oxidation by thioredoxin reductase with the disulfide as substrate, or with thioredoxin and insulin as final electron acceptor and the disulfide as inhibitor; assay type: biochemical; settings: for Type: behaviour towards thioredoxin reductase: substrate, inhibitor or non-reactive
T2 sequence (Q16881 1-499 isoform Q16881-5): T1 sequence (Q16881 1-499 isoform Q16881-5)
Experimental: The thioredoxin was stored at −20° C. with 5 mM dithiothreitol which was removed before use with a desalting column (PD10, Pharmacia, Uppsala, Sweden).
Asymmetrical 2-imidazolyl disulfides which were used as a basis for further development and identified below in Table 1. In Table I, NADPH oxidation by thioredoxin reductase was measured spectrophotometrically as described with either the disulfide as the electron acceptor (substrate) or with thioredoxin and insulin as the final electron acceptor and the disulfide as inhibitors. The reactions were initiated by the addition of NADPH. Km and Ki values were calculated from Lineweaver-Burk plots of the data.
The compounds of Table 1 were synthesized by a method described previously and recrystallized prior to use. Stock solutions of the disulfides were prepared at 10 mM in ethanol and diluted in aqueous media just prior to use. N-ethylmaleimide (NEM), diamide, and DTT were obtained from Sigma Chemical Co. (St. Louis, Mo.). All other chemicals used were of reagent grade. […]

thioredoxin = molecular target: T3, thioredoxin (Homo sapiens, UniProt P10599); test: Direct reaction between thioredoxin and disulfides, release of 2-mercaptoimidazole at 252 nm; assay type: biochemical; settings: for initial rate for reaction between thioredoxin and disulfide: thioredoxin 2 μM, disulfide 200 μM, pH 7.4, room temperature
T3 construct: made in house; host or cells: E. coli
T3 sequence (P10599 1-105): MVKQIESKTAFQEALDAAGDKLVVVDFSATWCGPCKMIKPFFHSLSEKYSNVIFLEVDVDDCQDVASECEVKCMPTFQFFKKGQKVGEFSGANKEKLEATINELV
Experimental: The effects of the assymetric disulfides of Table I on the reduction of thioredoxin and C73S by thioredoxin reductase was measured spectrophotometrically by following the reduction of NADPH at 339 nm. […] In some studies the disulfides at 3.5 μM were preincubated for up to 24 hr at room temperature in air with 0.7 μM thioredoxin or C73S in 100 μM HEPES buffer, pH 7.6, and 5 mM EDTA, before measuring the reduction of the thioredoxin or C73S by thioredoxin reductase with 1 mg/ml bovine insulin as the final electron acceptor. The ability of the disulfides to act as substrates for glutathione reductase was measured by following the reduction of NADPH using an incubation mixture containing 0.15 μg/ml glutathione reductase, 140 μM NADPH, 100 mM HEPES buffer, pH 7.6, 5 mM EDTA and the disulfides at 500 μM. The ability of the disulfides to act as inhibitors of glutathione reductase was measured using oxidized glutathione, 50 μM, as the final electron acceptor. In both cases the reaction was initiated by the addition of NADPH. Thioredoxin or C32S/C35S, 2 μM, in 0.1 M sodium phosphate buffer, pH 7.4, was reacted with the disulfides at a concentration of 200 μM at room temperature. This direct reaction between thioredoxin and the disulfides was followed spectrophotometrically as the increase in absorbance at 252 nm due to release of 2-mercaptoimidazole. Initial reaction rates were measured in triplicate.
Due to the fact that the disulfides inhibited thioredoxin-dependent cell growth at concentrations below those required to inhibit thioredoxin reductase, a direct effect of the disulfides on thioredoxin was looked for. The initial reaction between the disulfides and thioredoxin was measured spectrophotometrically (FIGS. 2A and 2B). […] This is the order of reactivity which be predicted from the steric and electronic nature of the disulfides thioalkylating groups.

[3] = system: MCF-7 breast cancer cells in scid mice; test: Activity against MCF-7 breast cancer cells in scid mice; assay type: in vivo; settings: for T/C %: tumor volume treated versus control at day 28
Description: This is shown below in Table II.

HL60 cells = test: Induction of apoptosis in HL60 cells; assay type: cell-based, human; settings: within 8 h of exposure, same concentration
[4] = Table 3, read-out: IC50 TR/Trx (converted)
[5] = Table 4, read-out: Disulfide inhibition of TR/Trx (IC50 TR/Trx) (converted)

SMILES | IC50 at 48 h (in vitro) | Disulfide inhibition of TR/Trx (IC50 TR/Trx) (TR/Trx; Table 4) | IC50 [1] | also measured
CC(SSc1nccs1)c1ccccc1 (stereo not drawn) [Compound J-1] | 28 µM | – | – | IC50 (TR/Trx; [4]): 15.8 µM
CCC(C)SSc1nc2cc([N+](=O)[O-])ccc2[nH]1 (stereo not drawn) [Compound F-10] | – | 47 µg/mL | 36 µM | –
CC(O)C(C)SSc1ccccc1 (stereo not drawn) [Compound M-13] | 46 µM | – | – | –
CCC(C)SSCc1cccc(OC)c1 (stereo not drawn) [Compound F-20] | – | 61 µg/mL | > 180 µM | –
c1ccc(CSSc2ncc[nH]2)cc1 [DLK-36, benzyl 2-imidazolyl disulfide] | 22 µM | – | – | Type [2]: competitive inhibitors; also recorded: inhibitor; Ki ([2]; competitive inhibitors of the reduction of thioredoxin by thioredoxin reductase): 31 µM; initial rate for reaction between thioredoxin and disulfide (thioredoxin): 1.3e-06 M/s; Toxicity dead/injected ([3]; 25 mg/kg/day i.p. for 14 days): 1/8; T/C % ([3]; 25 mg/kg/day i.p. for 14 days): 100.7%; Toxicity dead/injected ([3]; 40 mg/kg/day i.p. for 14 days): 0/6; T/C % ([3]; 40 mg/kg/day i.p. for 14 days): 23.7^c %; tumor inhibition ([3]; MCF-7 tumor system): 65%
CCC(C)SSc1nc2ccccc2o1 (stereo not drawn) [Compound F-12] | – | 22 µg/mL | > 180 µM | –
CC(C)SSc1nccn1C [Compound E-2] | – | 100 µg/mL | 33 µM | –
CC(O)C(C)SSc1nc2ccccc2o1 (stereo not drawn) [Compound M-29] | 29 µM | – | – | –
CCC(C)SSc1nnc(S)s1 (stereo not drawn) [Compound F-4] | 36 µM | – | – | IC50 (TR/Trx; [4]): 117 µM
CCCCSSc1nccn1C [Compound C-2] | – | 147 µg/mL | 26 µM | –
CCC(C)SSc1nnc(C)s1 (stereo not drawn) [Compound F-3] | 7 µM | – | – | IC50 (TR/Trx; [4]): 68.1 µM
CCC(C)SSc1nccs1 (stereo not drawn) [Compound F-5] | 34 µM | – | – | –
CCCSSC1CCCC1 [Compound F-27] | 51 µM | – | – | IC50 (TR/Trx; [5]): 289 µM
CCC(C)SSC(C)c1ccccc1 (stereo not drawn) [Compound F-22] | – | 201 µg/mL | > 180 µM | –
CCC(C)SSc1nccc(C)n1 (stereo not drawn) [Compound F-24] | – | 83 µg/mL | > 180 µM | –
Cc1nnc(SSC(C)C)s1 [Compound E-3] | – | 100 µg/mL | > 180 µM | –
CCC(C)SSc1ncccc1C(=O)O (stereo not drawn) [Compound F-23] | – | 81 µg/mL | > 180 µM | –
Cc1ccnc(SSC(C)C)n1 [Compound E-24] | – | 60 µg/mL | > 180 µM | –
CC(C)(C)SSc1ncc[nH]1 [IX-2, t-butyl 2-imidazolyl disulfide] | – | – | – | Type [2]: non-reactive; rate of thiol/disulfide exchange reaction with thioredoxin relative to III-2 (thioredoxin): three logs slower; initial rate for reaction between thioredoxin and disulfide (thioredoxin; unit not given, in M/s): 3.0×10^−9; apoptosis of HL60 cells (HL60 cells): does not cause apoptosis
CC(C)SSc1ncc[nH]1 [Compound E-1] | – | 7 µg/mL | 24 µM | –
CCC(C)SSc1nc2ccccc2s1 (stereo not drawn) [Compound F-11] | – | – | – | IC50 (in vitro): 33 µM
CCCSSc1ncc[nH]1 [Compound B-1] | – | 7 µg/mL | 21 µM | –
CCSSc1ncc[nH]1 [VI-2, ethyl 2-imidazolyl disulfide] | 8 µM | – | – | Type [2]: substrate; Km ([2]; disulfide as substrate for reduction by thioredoxin reductase, Lineweaver-Burk): 48 µM and 48.1 µM; Toxicity dead/injected ([3]; 4 mg/kg/day i.p. for 14 days): 1/8; T/C % ([3]; 4 mg/kg/day i.p. for 14 days): 83.0%; Toxicity dead/injected ([3]; 6 mg/kg/day i.p. for 14 days): 0/8; T/C % ([3]; 6 mg/kg/day i.p. for 14 days): 65.8%; Toxicity dead/injected ([3]; 12 mg/kg/day i.p. for 14 days): 4/8; T/C % ([3]; 12 mg/kg/day i.p. for 14 days): 64.6%; IC50 (TR/Trx; [5]): 25 µM
CCC(C)SSc1nc2ccccc2[nH]1 (stereo not drawn) [Compound F-8] | – | 7 µg/mL | 73 µM | –
CCC(C)SSc1nccn1C (stereo not drawn) [Compound F-2] | – | 51 µg/mL | 43 µM | –
CC(C)SSc1ncccc1C(=O)O [Compound E-23] | – | 40 µg/mL | > 180 µM | –
CCSSc1nccn1C [Compound A-2] | – | 80 µg/mL | 15 µM | –
CCC(C)SSCc1ccccc1 (stereo not drawn) [Compound F-19] | – | >189 µg/mL | 108 µM | –
CC(C)CSSc1ncc[nH]1 [Compound G-1] | – | 8 µg/mL | 28 µM | –
CC(O)C(C)SSc1nccn1C (stereo not drawn) [Compound M-2] | – | – | ≥ 180 µM | –
